Experimental data from patent US20090143279A1 (priority 2007, published 2009).
Where two headings read alike, the source gives them in different places. Where a SMILES comes first, the peptide text is derived from it.

Legend:
[1] = system: mtOXPHOS transcripts; type: cell-based, mouse; details: for mito-OXPHOS Z: Table 7, C2C12 myotubes, 48 h, composite Z-score
[2] = system: OXPHOS gene expression; type: cell-based, mouse
[3] = system: mitochondrial membrane potential; type: cell-based, mouse
[4] = system: cytochrome c; type: cell-based, mouse
[5] = system: nuOXPHOS transcripts; type: cell-based, mouse; details: for nucOXPHOS Z: Table 7, C2C12 myotubes, 48 h, composite Z-score
[6] = system: C2C12 myotubes
[7] = system: reactive oxygen species; type: cell-based, mouse
[8] = system: cellular dehydrogenase activity
[9] = composite Z-score vs DMSO, Conc 20 μM
[10] = composite Z-score vs mock-treated (DMSO) wells, concentration of each compound in μM
[11] = composite Z-score vs mock-treated (DMSO) wells, Conc 20 μM
[12] = composite Z-score vs DMSO, Conc 15.42 μM
[13] = composite Z-score vs DMSO, Conc 15.08 μM
[14] = normalized composite Z-score vs mock-treated (DMSO) wells, Conc 20 μM

Oc1ccc([C@H]2Oc3cc(O)cc(O)c3C[C@H]2O)cc1 [(2R,3R)-(−)-epiafzelechin]
mitoOX [1, 9]: −0.225 | GE-HTS [2, 9]: −0.497 | ΔΨm [3, 9]: −3.118 | cyt c [4, 9]: 0.166 | nucOX [5, 9]: −0.559 | Viability [6, 9]: −0.719 | ROS [7, 9]: 1.019 | MTT [8, 9]: −0.486

CN1CCc2cc3c(cc2[C@H]1[C@@H]1OC(=O)c2c1ccc1c2OCO1)OCO3 [(+)-bicuculline]
mitoOX [1, 9]: −0.495 | GE-HTS [2, 9]: −0.189 | ΔΨm [3]: −0.852 | ΔΨm [3, 9]: −0.945 | cyt c [4]: 0.300 | cyt c [4, 9]: −0.116 | nucOX [5, 9]: −0.028 | Viability [6]: −0.190 | Viability [6, 9]: −0.572 | ROS [7]: 0.256 | ROS [7, 9]: 0.428 | MTT [8]: −1.330 | MTT [8, 9]: −0.812

CN1Cc2c(ccc3c2OCO3)[C@@H]2[C@H]1c1cc3c(cc1C[C@@H]2O)OCO3 [(+)-chelidonine]
mitoOX [1, 10]: 0.836 | GE-HTS [2, 10]: 0.941 | ΔΨm [3, 10]: −1.123 | cyt c [4, 10]: −1.144 | nucOX [5, 10]: 0.901 | Viability [6, 10]: −1.005 | ROS [7, 10]: −1.486 | MTT [8, 10]: −1.988

COc1ccc([C@@H](C)C(=O)c2ccc(O)cc2O)cc1 [(R)-angolensin]
mitoOX [1, 11]: −0.245 | GE-HTS [2, 11]: 0.403 | ΔΨm [3, 11]: −0.444 | cyt c [4, 11]: −0.063 | nucOX [5, 11]: 0.703 | Viability [6, 11]: −0.164 | ROS [7, 11]: 0.225 | MTT [8, 11]: −0.743

CC(C)NC[C@H](O)COc1cccc2ccccc12 [(S)-propranolol]
mitoOX [1, 12]: 1.161 | GE-HTS [2, 12]: 0.857 | ΔΨm [3, 12]: −0.340 | cyt c [4, 12]: 0.349 | nucOX [5, 12]: 0.623 | Viability [6, 12]: 0.307 | ROS [7, 12]: −0.185 | MTT [8, 12]: −0.351

COc1ccc([C@H]2COc3c(ccc(O)c3OC)C2)c(OC)c1O [(−)-duartin]
mitoOX [1, 10]: 0.466 | GE-HTS [2, 10]: −0.048 | ΔΨm [3, 10]: 0.392 | cyt c [4, 10]: −0.472 | nucOX [5, 10]: −0.331 | Viability [6, 10]: 1.175 | ROS [7, 10]: 0.900 | MTT [8, 10]: −0.571

COc1ccc(C[C@H]2NC[C@H](O)[C@H]2OC(C)=O)cc1 [Anisomycin, reference compound]
mito-OXPHOS Z [1]: −3.55 | mitoOX [1, 13]: −3.545 | GE-HTS [2, 13]: −0.353 | ΔΨm [3, 13]: −1.537 | cyt c [4, 13]: −2.841 | nucOXPHOS Z [5]: 1.26 | nucOX [5, 13]: 1.256 | nuOXPHOS expression ([5]; screen, relative to mtOXPHOS, in words): preferentially increase | Viability [6, 13]: −2.835 | ROS [7, 13]: −2.958 | MTT [8, 13]: −4.623

COc1cccc2c1C(=O)c1c(O)c3c(c(O)c1C2=O)C[C@@](O)(C(C)=O)C[C@@H]3O[C@H]1C[C@H](N)[C@H](O)[C@H](C)O1 [Daunorubicin, reference compound]
mitoOX [1]: 1.373 | mito-OXPHOS Z [1]: 1.37 | GE-HTS [2]: −1.008 | ΔΨm [3]: −2.337 | cyt c [4]: −3.722 | nucOX [5]: −2.094 | nucOXPHOS Z [5]: −2.09 | Viability [6]: −3.547 | ROS [7]: −2.398 | MTT [8]: −5.009

Cc1c(O)c(O)cc2c1CC=C1[C@@]2(C)CC[C@@]2(C)[C@@H]3C[C@](C)(C(=O)O)CC[C@]3(C)CC[C@]12C [Dihydrocelastrol, reference compound]
mito-OXPHOS Z [1]: −5.22 | mitoOX [1, 14]: −5.217 | GE-HTS [2, 14]: −0.295 | ΔΨm [3, 14]: −3.514 | cyt c [4, 14]: −4.583 | nucOXPHOS Z [5]: 2.18 | nucOX [5, 14]: 2.183 | Viability [6, 14]: −4.120 | ROS [7, 14]: −3.065 | MTT [8, 14]: −5.524

C[C@H](N)CO [I-alaninol]
mitoOX [1, 9]: −0.738 | GE-HTS [2, 9]: −0.652 | ΔΨm [3, 9]: −0.428 | cyt c [4, 9]: 0.301 | nucOX [5, 9]: −0.555 | Viability [6, 9]: −0.353 | ROS [7, 9]: 0.242 | MTT [8, 9]: −0.342

CC(C)C[C@H](N)C(=O)N[C@@H](C)C(=O)O [L-leucyl-L-alanine] (H-Leu-Ala-OH)
mitoOX [1, 9]: 0.093 | GE-HTS [2, 9]: 0.365 | ΔΨm [3, 9]: −0.307 | cyt c [4, 9]: −0.861 | nucOX [5, 9]: 0.465 | Viability [6, 9]: −0.600 | ROS [7, 9]: 0.301 | MTT [8, 9]: −0.320

O[C@H]1[C@H]2c3cc4c(cc3CN3CCC(=C[C@@H]1O)[C@H]23)OCO4 [Lycorine, reference compound]
mitoOX [1, 9]: −5.387 | GE-HTS [2, 9]: −1.119 | ΔΨm [3, 9]: −2.570 | cyt c [4, 9]: −1.288 | nucOX [5, 9]: 1.103 | Viability [6, 9]: −2.922 | ROS [7, 9]: −2.639 | MTT [8, 9]: −4.612
